The source of these data is US20250179017A1 (GUANGDONG NEWOPP BIOPHARMACEUTICALS CO., LTD., priority 2022, published 2025).

In experiment [1] the target is T1, human EP4 (EP4R) (Homo sapiens, UniProt P35408).
T1 construct: Cayman Chemical (Human EP4 Reporter Assay Kit)
Put plainly: EP4 antagonist assay (HEK-293 CNG membrane potential cAMP assay / 293T SEAP reporter assay, PGE2-stimulated). Format: cell-based. As to conditions: EP4 antagonist activity; concentration for inhibition of signal compared to DMSO. An excerpt: 1. The HEK-293 CNG (Cyclic Nucleotide Gated) cell line expressing a modified CNG channel that leads to cell membrane depolarization in response to elevated intracellular cAMP levels, which can be measured using a fluorescent membrane potential dye, was engineered to express human EP2 (PTGER2) or EP4 (EP4R). The resulting cell line ACTOne™ PTGER2 or ACTOne™ EP4R as well as the fluorescent membrane potential dye were purchased from eEnzyme (Gaithersburg, MD, US) and used in this assay. Briefly, cells were plated at 1.2×10^4 cells/well in 20 μL DMEM supplemented with 2% Fetal Bovine Serum (FBS, VWR International), 1x Penicillin/Streptomycin (GenClone), 0.2 μg/mL puromycin (InvivoGen) and 50 μg/mL G418 (InvivoGen) on a 384 well plate (Greiner). The next day, cells were dye-loaded with 20 μL/well of 1x Dye-loading solution (eENZYME) following the manufacturer's instruction. After 2 hours of incubation at room temperature (RT) in the dark, a pre-read was made to obtain the background signals using CLARIOstar plate reader (BMG LABTECH, Germany) with the following filter settings: excitation=530/20 nm, emission=590/20 nm. Next, a serial dilution of compound (plus a DMSO control) were added to the plate (5 μL/well) and the reaction was incubated at RT for 15 min before adding 5 μL of PGE2 to every well for a final concentration of 5 nM. All wells were duplicated. The plate was then further incubated at RT for 30 min prior to a final read with the same machine settings. Background-subtracted signals were used to calculate IC50 values.
2. Human EP2 and EP4 Reporter Assay Kits were purchased from Cayman Chemical (Ann Arbor, MI, USA). The assay was performed following the provided User Manual. Briefly, a reverse transfection was performed by seeding 6.0×10^4 of 293T cells (ATCC) to each well of the provided Strip Plate coated with a proprietary transfection complex containing DNA constructs for expressing human EP2 or EP4 and a cAMP response element regulated secreted alkaline phosphatase (SEAP) reporter, in 200 μL DMEM supplemented with 2% FBS and incubated for 20-24 hours at 37° C. with 5% CO2. After the incubation, the culture medium was carefully removed, and the cells were replenished with 150 μL pre-warmed serum-free medium. PGE2 and test compounds were prepared together at 4x the desired final concentration, and 50 μL was added to each assigned well with the final concentration of 13 nM and 2 nM PGE2 for EP2 and EP4 assay, respectively. After 6-8 hours of incubation, 10 μL media from each well was transferred to corresponding well of a new plate, which was then sealed and incubated at 65° C. for 30 min. The plate was then cooled down to RT and 50 μL SEAP substrate was added to each well. Luminescence signal was measured using a CLARIOstar plate reader.
The IC50 value was determined as the concentration for […] inhibition of signal compared to DMSO (A: IC50≤100 nM; B: IC50 between 100 nM and 1,000 nM; C: IC50≥1,000 nM).

The target of experiment [2] is T2, human EP2 (PTGER2) (Homo sapiens, UniProt P43116).
T2 construct: Cayman Chemical (Human EP2 Reporter Assay Kit)
The experiment is described as follows: EP2 antagonist assay (HEK-293 CNG membrane potential cAMP assay / 293T SEAP reporter assay, PGE2-stimulated). It is filed as cell-based. The following applies: EP2 antagonist activity; concentration for 50% inhibition of signal compared to DMSO. The procedure, abridged:
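HEK-293 CNG cells expressing human EP2: compound preincubated 15 min at RT, then PGE2 at 5 nM final, 30 min; membrane-potential dye fluorescence (ex 530, em 590 nm), background-subtracted, gave IC50. Alternatively, 293T cells reverse-transfected with EP2 and CRE-SEAP, compound plus 13 nM PGE2 for 6-8 h, SEAP luminescence.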
On the technique in general: Changes in cAMP serve as a functional read-out for many G protein-coupled receptors.

pIC50: −log10 of the molar value.

T2 sequence (P43116 whole entry): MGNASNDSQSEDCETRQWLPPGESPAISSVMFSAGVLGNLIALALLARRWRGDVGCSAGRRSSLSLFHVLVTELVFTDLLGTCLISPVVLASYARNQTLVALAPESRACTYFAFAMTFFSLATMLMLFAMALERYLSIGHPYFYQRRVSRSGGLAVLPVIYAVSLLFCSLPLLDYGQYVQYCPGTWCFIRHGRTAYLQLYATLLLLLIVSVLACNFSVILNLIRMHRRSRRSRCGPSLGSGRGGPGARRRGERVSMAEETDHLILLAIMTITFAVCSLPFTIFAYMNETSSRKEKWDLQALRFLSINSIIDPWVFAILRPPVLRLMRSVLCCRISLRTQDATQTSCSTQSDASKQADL
T1 sequence (P35408 whole entry): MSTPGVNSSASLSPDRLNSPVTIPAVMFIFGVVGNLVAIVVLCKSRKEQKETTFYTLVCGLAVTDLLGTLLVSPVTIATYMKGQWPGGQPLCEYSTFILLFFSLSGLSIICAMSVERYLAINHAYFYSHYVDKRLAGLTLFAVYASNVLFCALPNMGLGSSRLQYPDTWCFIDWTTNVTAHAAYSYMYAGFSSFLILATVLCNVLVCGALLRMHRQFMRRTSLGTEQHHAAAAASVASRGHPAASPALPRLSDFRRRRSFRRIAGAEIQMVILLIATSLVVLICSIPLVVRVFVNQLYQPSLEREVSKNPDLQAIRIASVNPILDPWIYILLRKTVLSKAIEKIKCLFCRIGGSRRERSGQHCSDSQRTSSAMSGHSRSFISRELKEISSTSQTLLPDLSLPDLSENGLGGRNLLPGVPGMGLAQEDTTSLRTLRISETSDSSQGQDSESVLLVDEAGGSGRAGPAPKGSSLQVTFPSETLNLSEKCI

The term pIC50 denotes −log10 of the IC50, conventionally taken in molar units. Low readings indicate a large IC50, high ones a small IC50. Consider `C[C@H](NC(=O)c1cc(-c2ccccc2)cc2ccn(Cc3ccc(C(F)(F)F)cc3)c12)c1ccc(C(=O)O)cc1` [Example 51, (S)-4-(1-(5-phenyl-1-(4-(trifluoromethyl)benzyl)-1H-indole-7-carboxamido)ethyl) benzoic acid], for which the pIC50 was not below 7.00 in experiment [1] and more than 7.00 in experiment [2].
For `C[C@H](NC(=O)c1cc(-c2cccc(C#N)c2)cc2ccn(Cc3ccc(C(F)(F)F)cc3)c12)c1ccc(C(=O)O)cc1` [Example 52, (S)-4-(1-(5-(3-cyanophenyl)-1-(4-(trifluoromethyl)benzyl)-1H-indole-7-carboxamido)ethyl) benzoic acid] the same measures were not below 7.00 and more than 7.00.
On to `O=C(O)c1ccc(CNC(=O)c2ccc(Nc3ccccc3)c3ccn(Cc4ccc(C(F)(F)F)cc4)c23)cc1` [Example 57, 4-((4-(phenylamino)-1-(4-(trifluoromethyl)benzyl)-1H-indole-7-carboxamido)methyl)benzoic acid], for which the negative-log IC50 (pIC50) in experiment [1] is 6.00 to 7.00; in experiment [2] it was more than 7.00.
`O=C(O)c1ccc(CNC(=O)c2ccc(Nc3cc(F)cc(F)c3)c3ccn(Cc4ccc(C(F)(F)F)cc4)c23)cc1` [Example 69, 4-((4-((3,5-difluorophenyl)amino)-1-(4-(trifluoromethyl)benzyl)-1H-indole-7-carboxamido)methyl)benzoic acid]: the pIC50 was 6.00 to 7.00 in experiment [1] and more than 7.00 in experiment [2].
As for `C[C@H](NC(=O)c1ccc(Nc2ccccc2)c2ccn(Cc3ccc(C(F)(F)F)cc3)c12)c1ccc(C(=O)O)cc1` [Example 74, (S)-4-(1-(4-(phenylamino)-1-(4-(trifluoromethyl)benzyl)-1H-indole-7-carboxamido)ethyl)benzoic acid], the pIC50 in experiment [1] is not below 7.00; in experiment [2] it was more than 7.00.
The like results for `COc1cccc(-c2cc(C(=O)NCc3ccc(C(=O)O)cc3)c3c(ccn3Cc3ccc(C(F)(F)F)cc3)c2)c1` [Example 76, 4-((5-(3-methoxyphenyl)-1-(4-(trifluoromethyl)benzyl)-1H-indole-7-carboxamido)methyl)benzoic acid] were, in that order, not below 7.00 and more than 7.00.
The like results for `O=C(O)c1ccc(CNC(=O)c2cc(-c3cccnc3)cc3ccn(Cc4ccc(C(F)(F)F)cc4)c23)cc1` [Example 78, 4-((5-(pyridin-3-yl)-1-(4-(trifluoromethyl)benzyl)-1H-indole-7-carboxamido)methyl)benzoic acid] were, in that order, not below 7.00 and more than 7.00.
For `O=C(O)c1ccc(CNC(=O)c2cc(-c3ccncc3)cc3ccn(Cc4ccc(C(F)(F)F)cc4)c23)cc1` [Example 80, 4-((5-(pyridin-4-yl)-1-(4-(trifluoromethyl)benzyl)-1H-indole-7-carboxamido)methyl)benzoic acid] the same measures were not below 7.00 and more than 7.00.
As for `CC(C)(O)c1cccc(-c2cc(C(=O)NCc3ccc(C(=O)O)cc3)c3c(ccn3Cc3ccc(C(F)(F)F)cc3)c2)c1` [Example 85, 4-((5-(3-(2-hydroxypropan-2-yl)phenyl)-1-(4-(trifluoromethyl)benzyl)-1H-indole-7-carboxamido)methyl)benzoic acid], the values for the negative-log IC50 (pIC50) in experiment [1] and in experiment [2] were not below 7.00 and 6.00 to 7.00, respectively.
For the molecule `O=C(O)c1ccc(CNC(=O)c2cc(-c3ccccc3F)cc3ccn(Cc4ccc(C(F)(F)F)cc4)c23)cc1` [Example 87, 4-((5-(2-fluorophenyl)-1-(4-(trifluoromethyl)benzyl)-1H-indole-7-carboxamido)methyl)benzoic acid], the values for the pIC50 in experiment [1] and in experiment [2] were not below 7.00 and more than 7.00, respectively.
In the case of `O=C(O)c1ccc(CNC(=O)c2cc(-c3ccc(F)cc3)cc3cnn(Cc4ccc(C(F)(F)F)cc4)c23)cc1` [Example 96, 4-((5-(4-fluorophenyl)-1-(4-(trifluoromethyl)benzyl)-1H-indazole-7-carboxamido)methyl)benzoic acid], the values for the pIC50 in experiment [1] and in experiment [2] were not below 7.00 and more than 7.00, respectively.
Take `O=C(O)c1ccc(CNC(=O)c2cc(-c3ccccc3)cc3cnn(Cc4ccc(C(F)(F)F)cc4)c23)cc1` [Example 97, 4-((5-phenyl-1-(4-(trifluoromethyl)benzyl)-1H-indazole-7-carboxamido)methyl)benzoic acid]: the negative logarithm of the IC50 (pIC50) was not below 7.00 in experiment [1] and more than 7.00 in experiment [2].
For `C[C@H](NC(=O)c1cc(-c2ccccc2)cc2cnn(Cc3ccc(C(F)(F)F)cc3)c12)c1ccc(C(=O)O)cc1` [Example 100, (S)-4-(1-(5-phenyl-1-(4-(trifluoromethyl)benzyl)-1H-indazole-7-carboxamido)ethyl)benzoic acid] the same measures were not below 7.00 and more than 7.00.
The like results for `C[C@H](NC(=O)c1cc(-c2cc(F)cc(F)c2)cc2cnn(Cc3ccc(C(F)(F)F)cc3)c12)c1ccc(C(=O)O)cc1` [Example 101, (S)-4-(1-(5-(3,5-difluorophenyl)-1-(4-(trifluoromethyl)benzyl)-1H-indazole-7-carboxamido)ethyl)benzoic acid] were, in that order, not below 7.00 and more than 7.00.
The like results for `O=C(O)c1ccc(CNC(=O)c2cc(-c3cc(F)cc(F)c3)cc3ccn(Cc4cccc(Cl)c4)c23)cc1` [Example 106, 4-((1-(3-chlorobenzyl)-5-(3,5-difluorophenyl)-1H-indole-7-carboxamido)methyl)benzoic acid] were, in that order, not below 7.00 and more than 7.00.
In the case of `O=C(O)c1ccc(CNC(=O)c2cc(-c3ccc(F)cc3)cc3ccn(Cc4cccc(Cl)c4)c23)cc1` [Example 107, 4-((1-(3-chlorobenzyl)-5-(4-fluorophenyl)-1H-indole-7-carboxamido)methyl)benzoic acid], the figures for the pIC50 in experiment [1] and in experiment [2] were not below 7.00 and more than 7.00, respectively.
The like results for `N#Cc1cccc(-c2cc(C(=O)NCc3ccc(C(=O)O)cc3)c3c(Sc4ccc(C(F)(F)F)cc4)c[nH]c3c2)c1` [Example 117, 4-((6-(3-cyanophenyl)-3-((4-(trifluoromethyl)phenyl)thio)-1H-indole-4-carboxamido)methyl)benzoic acid] were, in that order, not below 7.00 and more than 7.00.
The like results for `O=C(O)c1ccc(CNC(=O)c2cc(-c3ccc(F)cc3)cc3ccn(Cc4cccc(C(F)(F)F)c4)c23)cc1` [Example 124, 4-((5-(4-fluorophenyl)-1-(3-(trifluoromethyl)benzyl)-1H-indole-7-carboxamido)methyl)benzoic acid] were, in that order, not below 7.00 and more than 7.00.
For `C[C@H](NC(=O)c1cc(-c2ccccc2)cc2ccn(Cc3cccc(C(F)(F)F)c3)c12)c1ccc(C(=O)O)cc1` [Example 129, (S)-4-(1-(5-phenyl-1-(3-(trifluoromethyl)benzyl)-1H-indole-7-carboxamido)ethyl)benzoic acid], the figures for the pIC50 in experiment [1] and in experiment [2] were not below 7.00 and more than 7.00, respectively.
With `C[C@H](NC(=O)c1cc(-c2ccc(F)cc2)cc2cnn(Cc3cccc(C(F)(F)F)c3)c12)c1ccc(C(=O)O)cc1` [Example 134, (S)-4-(1-(5-(4-fluorophenyl)-1-(3-(trifluoromethyl)benzyl)-1H-indazole-7-carboxamido)ethyl)benzoic acid], the pIC50 in experiment [1] is not below 7.00; in experiment [2], more than 7.00.
Take `C[C@H](NC(=O)c1cc(-c2ccccc2)cc2cnn(Cc3cccc(C(F)(F)F)c3)c12)c1ccc(C(=O)O)cc1` [Example 135, (S)-4-(1-(5-phenyl-1-(3-(trifluoromethyl)benzyl)-1H-indazole-7-carboxamido)ethyl)benzoic acid]: the negative logarithm of the IC50 (pIC50) was not below 7.00 in experiment [1] and more than 7.00 in experiment [2].
